Patent publication US8415469B2, “Compounds and methods for kinase modulation, and indications therefor” (Plexxikon Inc., priority 2005, dated 2013)

Columns and labels:
Format in all cases: biochemical
Plk1 = Plk1 (Homo sapiens, UniProt P53350); experiment: AlphaScreen kinase assay, Plk1; settings: read-out: IC50, activity toward kinase Plk1
Description: AlphaScreen assay was used to screen additional kinases. The assay is similarly dependent on the phosphorylation of a peptide substrate. In this assay, an antibody that recognizes phosphorylated substrate is bound to an acceptor bead. The peptide substrate is attached to biotin, which binds to a donor head that contains streptavidin. Thus phosphorylated substrate is bound by antibody and streptavidin, bringing the donor and acceptor heads into close proximity when kinase is not inhibited. The donor produces singlet oxygen which results in emission from the acceptor when they are in close proximity. Conversely, when kinase is inhibited, the donor and acceptor beads are not associated and the emission from the acceptor is reduced.
AlphaScreen assays were done using compounds dissolved in DMSO to a concentration of 20 mM. The compounds were diluted accordingly to the desired final concentrations in each sample well, using 1:3 serial dilution for a total of 8 concentration points.

Stk6 = biological target: T1, Stk6 (Homo sapiens, UniProt O14965); experiment: Z'-Lyte FRET kinase assay (Invitrogen), Stk6; settings: read-out: IC50, activity toward kinase Stk6
T1 construct: purchased Invitrogen (Carlsbad, Calif.), screening service
T1 sequence (O14965 1-403): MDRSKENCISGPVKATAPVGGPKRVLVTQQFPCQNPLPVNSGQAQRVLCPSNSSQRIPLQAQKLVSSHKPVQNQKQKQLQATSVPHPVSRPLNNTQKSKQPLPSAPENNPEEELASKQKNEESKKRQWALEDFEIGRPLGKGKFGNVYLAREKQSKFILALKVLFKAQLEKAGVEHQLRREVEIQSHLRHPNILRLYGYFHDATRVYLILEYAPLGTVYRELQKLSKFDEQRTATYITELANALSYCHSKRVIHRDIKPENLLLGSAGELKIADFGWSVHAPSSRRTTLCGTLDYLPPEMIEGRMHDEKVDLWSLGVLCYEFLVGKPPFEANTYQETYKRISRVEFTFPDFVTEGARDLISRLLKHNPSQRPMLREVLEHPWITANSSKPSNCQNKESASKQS

Gsk3β = Gsk3β (Homo sapiens, UniProt P49841); experiment: AlphaScreen kinase assay, Gsk3β; settings: read-out: IC50, activity toward kinase Gsk3β
Summary of the method: (§1)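 Biotinylated peptide substrate is phosphorylated by kinase; anti-phosphopeptide antibody on acceptor beads and streptavidin donor beads bring emission when substrate is phosphorylated. Inhibition lowers acceptor signal. Compounds from 20 mM DMSO stock tested as 8-point 1:3 serial dilutions.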

Ret = biological target: T2, Ret (Homo sapiens, UniProt P07949); experiment: AlphaScreen kinase assay, Ret; settings: read-out: IC50, activity toward kinase Ret
T2 construct: P1378.pET-SF BI-PTP RET H661-R1012 HIS; made in house
T2 sequence (P07949 with tags, fused parts or gaps): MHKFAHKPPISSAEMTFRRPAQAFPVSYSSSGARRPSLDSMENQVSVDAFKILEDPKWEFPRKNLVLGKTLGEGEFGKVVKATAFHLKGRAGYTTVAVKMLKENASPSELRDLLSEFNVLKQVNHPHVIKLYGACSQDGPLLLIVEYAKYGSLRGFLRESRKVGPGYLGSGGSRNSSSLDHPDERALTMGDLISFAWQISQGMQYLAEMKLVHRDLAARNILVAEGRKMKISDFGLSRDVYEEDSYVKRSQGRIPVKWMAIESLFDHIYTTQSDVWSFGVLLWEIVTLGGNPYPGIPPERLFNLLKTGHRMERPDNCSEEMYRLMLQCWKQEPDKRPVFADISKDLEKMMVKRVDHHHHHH

Btk = biological target: T3, Btk (Homo sapiens, UniProt Q06187); experiment: Z'-Lyte FRET kinase assay (Invitrogen), Btk; settings: read-out: IC50, activity toward kinase Btk
T3 construct: purchased Invitrogen (assay run by Invitrogen)

B-Raf V600E = biological target: T4, B-Raf V600E (Homo sapiens, UniProt P15056, V600E); experiment: AlphaScreen kinase assay, B-Raf V600E; settings: read-out: IC50, activity toward kinase B-Raf V600E
T4 construct: P4254. pFastBacBD-CDC37 BRAF D437-K722-X, V600E; His6 with pFastBac HT leader (TEV site) (N); made in house; host or cells: Sf9 (baculovirus; chaperone CDC37 co-expressed)

Kit = biological target: T5, Kit (Homo sapiens, UniProt P10721); experiment: AlphaScreen kinase assay, Kit; settings: read-out: IC50, activity toward kinase Kit
T5 construct: P1332.N6 BI PTP KIT M552-K948-X COD; His6 (N); made in house; host or cells: E. coli (PTP1B co-expressed)

Zap70 = biological target: T6, Zap70 (Homo sapiens, UniProt P43403); experiment: AlphaScreen kinase assay, Zap70; settings: read-out: IC50, activity toward kinase Zap70
T6 construct: P1868.pFastBac1 ZAP70 D327-G606 HIS, WT; His7 (HHHHHHH) (C); made in house
T6 sequence (P43403 with tags, fused parts or gaps): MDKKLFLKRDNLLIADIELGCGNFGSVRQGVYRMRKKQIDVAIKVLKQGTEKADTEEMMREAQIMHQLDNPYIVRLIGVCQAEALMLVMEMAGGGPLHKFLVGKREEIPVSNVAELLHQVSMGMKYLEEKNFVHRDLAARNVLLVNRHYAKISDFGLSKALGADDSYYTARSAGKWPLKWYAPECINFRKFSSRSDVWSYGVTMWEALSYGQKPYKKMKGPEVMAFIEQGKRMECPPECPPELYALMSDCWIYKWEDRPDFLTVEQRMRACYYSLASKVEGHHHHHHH
Summary of the method: as §1

EphB2 = biological target: T7, EphB2 (Homo sapiens, UniProt P29323); experiment: Z'-Lyte FRET kinase assay (Invitrogen), EphB2; settings: read-out: IC50, activity toward kinase EphB2
T7 construct: purchased Invitrogen (assay run by Invitrogen)
T7 sequence (P29323 19-1055): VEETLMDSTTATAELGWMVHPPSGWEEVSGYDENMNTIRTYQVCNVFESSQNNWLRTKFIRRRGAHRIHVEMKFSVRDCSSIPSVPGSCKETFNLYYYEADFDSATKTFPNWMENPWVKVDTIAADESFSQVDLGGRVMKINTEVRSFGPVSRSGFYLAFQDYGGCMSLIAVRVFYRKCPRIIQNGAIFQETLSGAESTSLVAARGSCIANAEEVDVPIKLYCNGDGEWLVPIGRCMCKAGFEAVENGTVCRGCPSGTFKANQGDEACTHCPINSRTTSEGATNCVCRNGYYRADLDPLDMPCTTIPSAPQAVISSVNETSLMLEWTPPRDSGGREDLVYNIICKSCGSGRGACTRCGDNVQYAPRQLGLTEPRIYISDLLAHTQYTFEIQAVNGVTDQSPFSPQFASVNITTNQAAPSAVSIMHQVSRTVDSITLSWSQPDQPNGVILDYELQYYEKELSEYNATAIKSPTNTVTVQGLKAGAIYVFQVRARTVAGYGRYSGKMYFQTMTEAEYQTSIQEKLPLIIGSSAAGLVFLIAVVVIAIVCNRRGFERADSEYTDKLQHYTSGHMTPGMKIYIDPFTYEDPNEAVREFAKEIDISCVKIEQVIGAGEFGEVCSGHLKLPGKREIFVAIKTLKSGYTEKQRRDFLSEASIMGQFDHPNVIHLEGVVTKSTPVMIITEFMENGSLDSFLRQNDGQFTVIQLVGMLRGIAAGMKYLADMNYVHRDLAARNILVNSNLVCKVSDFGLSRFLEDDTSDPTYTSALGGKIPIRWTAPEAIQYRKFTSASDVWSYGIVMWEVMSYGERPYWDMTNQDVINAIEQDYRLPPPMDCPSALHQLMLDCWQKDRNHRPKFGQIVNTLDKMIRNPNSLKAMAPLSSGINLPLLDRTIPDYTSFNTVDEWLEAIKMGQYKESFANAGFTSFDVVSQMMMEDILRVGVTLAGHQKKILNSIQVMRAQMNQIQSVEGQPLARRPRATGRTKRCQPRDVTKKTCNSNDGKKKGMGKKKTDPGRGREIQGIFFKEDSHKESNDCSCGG
Summary of the method: (§2)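 Each kinase phosphorylated a FRET peptide (2 μM) at 10 μM ATP in 50 mM HEPES pH 7.5, 50 mM MgCl2, 5 mM EGTA, 0.05% BRIJ-35 with 1% DMSO, 1 h at room temperature. After a 1 h protease development step, coumarin/fluorescein emission ratio was read across serial compound dilutions.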

Yes = biological target: T8, Yes (Homo sapiens, UniProt P07947); experiment: Z'-Lyte FRET kinase assay (Invitrogen), Yes; settings: read-out: IC50, activity toward kinase Yes
T8 construct: purchased Invitrogen (Carlsbad, Calif.), screening service
Summary of the method: as §2

Kdr = biological target: T9, Kdr (Homo sapiens, UniProt P35968); experiment: Z'-Lyte FRET kinase assay (Invitrogen), Kdr; settings: read-out: IC50, activity toward kinase Kdr
T9 construct: purchased Invitrogen (assay run by Invitrogen)

MAP2K1 = biological target: T10, MAP2K1 (Homo sapiens, UniProt Q02750); experiment: Z'-Lyte FRET kinase assay (Invitrogen), MAP2K1; settings: read-out: IC50, activity toward kinase MAP2K1
T10 construct: purchased Invitrogen (assay run by Invitrogen)

FGFR1 = biological target: T11, FGFR1 (Homo sapiens, UniProt P11362, C488A/C584S); experiment: AlphaScreen kinase assay, FGFR1; settings: read-out: IC50, activity toward kinase FGFR
T11 construct: P1351.pET N6 BI-PTP FGFR A458-E765-X C488A, C584S; made in house; host or cells: E. coli (PTP1B co-expressed)

Akt3 = Akt3 (Homo sapiens, UniProt Q9Y243); experiment: AlphaScreen kinase assay, Akt3; settings: read-out: IC50, activity toward kinase Akt3
Summary of the method: as §1

Flt1 = biological target: T12, Flt1 (Homo sapiens, UniProt P17948); experiment: AlphaScreen kinase assay, Flt1; settings: read-out: IC50, activity toward kinase Flt1
T12 construct: P1826.pETN6 BI-PTP FLT1 M799-D1165-X WT; His6 (N); made in house; host or cells: E. coli (PTP1B co-expressed)
T12 sequence (P17948 with tags, fused parts or gaps): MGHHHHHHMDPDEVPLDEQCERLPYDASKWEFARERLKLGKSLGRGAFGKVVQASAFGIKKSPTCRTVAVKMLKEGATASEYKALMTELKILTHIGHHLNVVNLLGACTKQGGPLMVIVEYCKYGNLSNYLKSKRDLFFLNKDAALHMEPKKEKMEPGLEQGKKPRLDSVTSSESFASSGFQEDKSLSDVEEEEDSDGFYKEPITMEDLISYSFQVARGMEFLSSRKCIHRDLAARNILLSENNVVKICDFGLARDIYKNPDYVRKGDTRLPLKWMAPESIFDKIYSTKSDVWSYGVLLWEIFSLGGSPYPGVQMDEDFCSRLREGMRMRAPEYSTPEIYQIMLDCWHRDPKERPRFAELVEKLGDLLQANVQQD

Pyk2 = biological target: T13, Pyk2 (Homo sapiens, UniProt Q14289); experiment: AlphaScreen kinase assay, Pyk2; settings: read-out: IC50, activity toward kinase Pyk2
T13 construct: purchased Upstate Biotechnology

Fak = biological target: T14, Fak (Homo sapiens, UniProt Q05397); experiment: AlphaScreen kinase assay, Fak; settings: read-out: IC50, activity toward kinase Fak
T14 construct: P1358.pFastBacHtb FAK S411-Q686-X; His6 with pFastBacHTb leader (TEV site) (N); made in house; host or cells: Sf9 (baculovirus)
T14 sequence (Q05397 411-686): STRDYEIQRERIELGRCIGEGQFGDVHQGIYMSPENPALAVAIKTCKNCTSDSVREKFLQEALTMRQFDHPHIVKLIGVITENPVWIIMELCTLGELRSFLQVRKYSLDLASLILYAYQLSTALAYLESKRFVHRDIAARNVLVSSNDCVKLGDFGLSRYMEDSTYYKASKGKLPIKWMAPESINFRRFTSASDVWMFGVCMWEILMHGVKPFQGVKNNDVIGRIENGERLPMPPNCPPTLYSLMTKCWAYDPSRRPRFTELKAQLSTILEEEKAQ

Chain of Plk1 (P53350 whole entry): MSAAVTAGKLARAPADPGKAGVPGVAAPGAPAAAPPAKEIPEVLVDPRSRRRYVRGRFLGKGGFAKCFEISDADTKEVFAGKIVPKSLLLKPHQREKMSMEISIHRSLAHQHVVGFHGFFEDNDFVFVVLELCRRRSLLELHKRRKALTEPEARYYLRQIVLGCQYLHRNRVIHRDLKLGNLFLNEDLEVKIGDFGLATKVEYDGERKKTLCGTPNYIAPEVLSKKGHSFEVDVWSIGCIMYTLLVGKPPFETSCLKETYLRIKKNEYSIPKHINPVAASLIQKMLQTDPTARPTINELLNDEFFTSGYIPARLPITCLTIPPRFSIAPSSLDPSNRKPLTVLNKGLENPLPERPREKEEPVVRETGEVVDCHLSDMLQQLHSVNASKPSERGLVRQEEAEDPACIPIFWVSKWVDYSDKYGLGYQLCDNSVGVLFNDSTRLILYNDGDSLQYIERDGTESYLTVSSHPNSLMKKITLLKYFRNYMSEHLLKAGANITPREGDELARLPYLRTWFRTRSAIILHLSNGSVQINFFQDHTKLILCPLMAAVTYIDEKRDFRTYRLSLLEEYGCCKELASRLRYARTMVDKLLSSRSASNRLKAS
T3 sequence (Q06187 whole entry): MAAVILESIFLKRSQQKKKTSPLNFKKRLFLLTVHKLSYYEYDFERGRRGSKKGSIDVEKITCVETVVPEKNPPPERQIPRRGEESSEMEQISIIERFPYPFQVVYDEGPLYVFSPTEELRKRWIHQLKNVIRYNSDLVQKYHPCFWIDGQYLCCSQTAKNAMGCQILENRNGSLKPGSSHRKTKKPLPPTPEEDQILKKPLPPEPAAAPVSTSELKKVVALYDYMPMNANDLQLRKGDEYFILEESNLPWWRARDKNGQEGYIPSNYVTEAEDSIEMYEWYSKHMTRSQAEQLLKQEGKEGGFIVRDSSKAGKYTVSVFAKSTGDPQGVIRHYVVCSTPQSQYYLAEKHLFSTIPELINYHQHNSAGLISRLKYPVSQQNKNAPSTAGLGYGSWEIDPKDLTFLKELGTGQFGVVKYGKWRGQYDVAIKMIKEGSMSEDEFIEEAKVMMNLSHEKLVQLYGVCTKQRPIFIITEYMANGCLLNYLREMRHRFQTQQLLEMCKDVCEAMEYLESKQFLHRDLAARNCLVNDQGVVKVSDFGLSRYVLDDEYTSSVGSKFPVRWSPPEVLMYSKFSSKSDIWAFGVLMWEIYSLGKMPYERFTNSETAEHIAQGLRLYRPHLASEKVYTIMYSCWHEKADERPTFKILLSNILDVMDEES
T4 sequence (P15056 with tags, fused parts or gaps V600E): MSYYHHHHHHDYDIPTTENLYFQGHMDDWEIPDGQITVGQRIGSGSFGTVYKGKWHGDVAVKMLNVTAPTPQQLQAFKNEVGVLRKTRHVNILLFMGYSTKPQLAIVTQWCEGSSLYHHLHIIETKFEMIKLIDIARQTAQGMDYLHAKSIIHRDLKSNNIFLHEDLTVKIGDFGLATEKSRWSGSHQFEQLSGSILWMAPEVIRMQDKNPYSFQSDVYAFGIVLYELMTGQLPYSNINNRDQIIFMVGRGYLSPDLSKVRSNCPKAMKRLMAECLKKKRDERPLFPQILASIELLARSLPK
T10 sequence (Q02750 whole entry): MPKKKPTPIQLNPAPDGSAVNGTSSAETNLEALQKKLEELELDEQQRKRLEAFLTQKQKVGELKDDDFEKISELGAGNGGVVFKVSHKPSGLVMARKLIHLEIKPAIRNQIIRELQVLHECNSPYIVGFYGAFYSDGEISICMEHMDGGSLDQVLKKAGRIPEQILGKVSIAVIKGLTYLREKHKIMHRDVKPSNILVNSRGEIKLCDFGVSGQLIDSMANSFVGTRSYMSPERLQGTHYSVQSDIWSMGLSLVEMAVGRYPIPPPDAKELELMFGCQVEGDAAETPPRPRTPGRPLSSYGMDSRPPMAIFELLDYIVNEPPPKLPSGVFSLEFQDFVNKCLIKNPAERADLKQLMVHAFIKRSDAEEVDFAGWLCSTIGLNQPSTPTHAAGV
Chain of Gsk3β (P49841 whole entry): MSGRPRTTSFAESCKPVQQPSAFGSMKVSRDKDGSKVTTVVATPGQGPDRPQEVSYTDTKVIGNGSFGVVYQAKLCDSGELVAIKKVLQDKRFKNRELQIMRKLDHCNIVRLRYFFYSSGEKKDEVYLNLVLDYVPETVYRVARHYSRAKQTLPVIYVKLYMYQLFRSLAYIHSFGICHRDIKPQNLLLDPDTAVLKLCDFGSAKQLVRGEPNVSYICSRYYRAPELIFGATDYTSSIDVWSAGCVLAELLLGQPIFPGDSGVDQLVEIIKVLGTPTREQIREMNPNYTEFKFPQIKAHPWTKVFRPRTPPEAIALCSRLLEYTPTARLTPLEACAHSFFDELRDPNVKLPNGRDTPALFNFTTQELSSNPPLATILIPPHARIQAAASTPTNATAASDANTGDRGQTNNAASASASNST
T5 sequence (P10721 with tags, fused parts or gaps): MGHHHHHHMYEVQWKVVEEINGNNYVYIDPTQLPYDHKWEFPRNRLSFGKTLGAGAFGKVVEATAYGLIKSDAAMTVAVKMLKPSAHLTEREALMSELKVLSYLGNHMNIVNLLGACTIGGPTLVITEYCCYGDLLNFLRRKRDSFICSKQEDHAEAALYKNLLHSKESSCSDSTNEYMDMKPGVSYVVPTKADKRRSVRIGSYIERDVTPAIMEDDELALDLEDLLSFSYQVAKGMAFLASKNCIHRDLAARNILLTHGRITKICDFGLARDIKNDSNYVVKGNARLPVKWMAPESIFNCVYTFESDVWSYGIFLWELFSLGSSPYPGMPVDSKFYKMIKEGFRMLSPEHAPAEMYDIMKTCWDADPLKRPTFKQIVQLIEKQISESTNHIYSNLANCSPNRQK
T9 sequence (P35968 20-1356): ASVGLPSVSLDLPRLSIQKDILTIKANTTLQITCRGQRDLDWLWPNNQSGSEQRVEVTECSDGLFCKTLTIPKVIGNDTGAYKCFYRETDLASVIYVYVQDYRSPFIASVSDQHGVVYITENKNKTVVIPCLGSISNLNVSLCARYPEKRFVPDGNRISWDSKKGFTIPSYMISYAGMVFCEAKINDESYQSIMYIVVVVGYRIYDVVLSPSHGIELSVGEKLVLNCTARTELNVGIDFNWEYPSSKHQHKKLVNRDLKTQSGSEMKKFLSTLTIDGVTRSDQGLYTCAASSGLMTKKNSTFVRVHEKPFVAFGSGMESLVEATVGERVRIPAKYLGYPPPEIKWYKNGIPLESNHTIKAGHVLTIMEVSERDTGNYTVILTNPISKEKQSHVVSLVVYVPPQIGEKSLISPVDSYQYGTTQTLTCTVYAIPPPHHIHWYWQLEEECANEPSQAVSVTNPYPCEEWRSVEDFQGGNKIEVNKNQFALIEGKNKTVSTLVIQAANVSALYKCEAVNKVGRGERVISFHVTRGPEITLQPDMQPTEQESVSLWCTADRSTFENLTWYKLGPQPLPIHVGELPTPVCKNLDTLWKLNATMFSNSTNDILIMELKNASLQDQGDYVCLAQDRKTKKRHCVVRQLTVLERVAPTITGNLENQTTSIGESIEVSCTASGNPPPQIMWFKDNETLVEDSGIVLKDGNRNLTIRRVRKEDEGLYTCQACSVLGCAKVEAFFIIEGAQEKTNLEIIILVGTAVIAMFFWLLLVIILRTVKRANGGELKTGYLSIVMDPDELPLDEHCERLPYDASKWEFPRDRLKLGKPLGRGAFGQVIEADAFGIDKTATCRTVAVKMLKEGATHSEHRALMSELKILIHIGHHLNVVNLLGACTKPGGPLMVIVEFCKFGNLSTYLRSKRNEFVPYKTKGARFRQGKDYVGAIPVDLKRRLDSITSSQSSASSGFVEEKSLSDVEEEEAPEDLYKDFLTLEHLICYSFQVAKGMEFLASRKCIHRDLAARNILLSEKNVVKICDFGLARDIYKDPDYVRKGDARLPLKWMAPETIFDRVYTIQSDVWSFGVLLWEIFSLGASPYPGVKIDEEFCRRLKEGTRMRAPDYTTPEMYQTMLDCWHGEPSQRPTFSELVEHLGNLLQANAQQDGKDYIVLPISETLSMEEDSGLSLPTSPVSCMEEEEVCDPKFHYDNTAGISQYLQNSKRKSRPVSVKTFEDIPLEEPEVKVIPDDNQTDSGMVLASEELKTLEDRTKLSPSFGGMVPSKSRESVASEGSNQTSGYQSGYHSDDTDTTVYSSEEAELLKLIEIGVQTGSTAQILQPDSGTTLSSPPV
T8 sequence (P07947 whole entry): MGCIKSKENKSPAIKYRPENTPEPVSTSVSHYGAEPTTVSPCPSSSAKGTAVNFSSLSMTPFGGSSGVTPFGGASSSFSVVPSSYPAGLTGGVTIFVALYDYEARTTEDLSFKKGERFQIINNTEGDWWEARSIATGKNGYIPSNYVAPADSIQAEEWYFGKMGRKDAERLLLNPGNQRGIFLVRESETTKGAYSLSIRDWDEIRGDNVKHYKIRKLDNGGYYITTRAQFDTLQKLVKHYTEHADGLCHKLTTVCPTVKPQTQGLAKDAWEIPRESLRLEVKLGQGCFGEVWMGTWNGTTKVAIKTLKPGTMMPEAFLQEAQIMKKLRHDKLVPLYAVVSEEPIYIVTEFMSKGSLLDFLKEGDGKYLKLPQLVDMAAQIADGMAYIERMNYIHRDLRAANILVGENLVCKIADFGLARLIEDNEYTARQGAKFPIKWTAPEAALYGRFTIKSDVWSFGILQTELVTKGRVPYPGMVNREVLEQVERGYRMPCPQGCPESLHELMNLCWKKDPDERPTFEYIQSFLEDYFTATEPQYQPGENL

Compound | IC50 (Plk1) [µM] | IC50 (Stk6) [µM] | IC50 (Gsk3β) [µM] | IC50 (Ret) [µM] | IC50 (Btk) [µM] | IC50 (B-Raf V600E) [µM] | IC50 (Kit) [µM] | IC50 (Zap70) [µM] | IC50 (EphB2) [µM] | IC50 (Yes) [µM] | IC50 (Kdr) [µM] | IC50 (MAP2K1) [µM] | IC50 (FGFR1) [µM] | IC50 (Akt3) [µM] | IC50 (Flt1) [µM] | IC50 (Pyk2) [µM] | IC50 (Fak) [µM]
Clc1ccc(Cc2c[nH]c3nccc(-c4ccsc4)c23)cn1 [Compound P-0123] | ≤ 10 | ≤ 10 | ≤ 10 | ≤ 10 | – | – | ≤ 10 | ≤ 10 | – | – | – | – | – | – | – | – | –
Nc1cccc(-c2ccnc3[nH]cc(C(=O)c4cccc(Cl)c4Cl)c23)c1 [Compound P-0075] | ≤ 10 | – | – | ≤ 10 | ≤ 10 | ≤ 10 | – | – | ≤ 10 | ≤ 10 | ≤ 10 | – | – | – | – | – | –
COc1cccc(C(=O)c2c[nH]c3nccc(-c4cccc(N)c4)c23)c1 [Compound P-0099] | ≤ 10 | ≤ 10 | – | ≤ 10 | – | ≤ 10 | – | – | – | – | – | ≤ 10 | ≤ 10 | ≤ 10 | – | – | –

Second part, the molecule after the results:

IC50 (Plk1) [µM] | IC50 (Stk6) [µM] | IC50 (Gsk3β) [µM] | IC50 (Ret) [µM] | IC50 (Btk) [µM] | IC50 (B-Raf V600E) [µM] | IC50 (Kit) [µM] | IC50 (Zap70) [µM] | IC50 (EphB2) [µM] | IC50 (Yes) [µM] | IC50 (Kdr) [µM] | IC50 (MAP2K1) [µM] | IC50 (FGFR1) [µM] | IC50 (Akt3) [µM] | IC50 (Flt1) [µM] | IC50 (Pyk2) [µM] | IC50 (Fak) [µM] | Compound
≤ 10 | ≤ 10 | ≤ 10 | ≤ 10 | ≤ 10 | ≤ 10 | – | – | – | – | – | – | – | – | – | – | – | Nc1cccc(-c2ccnc3[nH]cc(C(=O)c4ccc(Cl)cc4)c23)c1 [Compound P-0148]
≤ 10 | – | – | ≤ 10 | ≤ 10 | – | – | – | ≤ 10 | ≤ 10 | – | – | – | – | – | – | – | Cc1ccccc1C(=O)c1c[nH]c2nccc(-c3cccnc3)c12 [Compound P-0083]
≤ 10 | ≤ 10 | – | – | – | – | ≤ 10 | – | – | – | ≤ 10 | ≤ 10 | – | – | ≤ 10 | ≤ 10 | ≤ 10 | Cc1occc1Sc1c[nH]c2ncccc12 [Compound P-0018]
